Substitutions are numbered along the chain they refer to. Read-outs that look alike come from different tables or passages of the source.
Assays:
wild-type mAPA = target: T1, wild-type mAPA (Mus musculus, UniProt P16406); assay: Inhibition of GluNA hydrolysis by purified recombinant wild-type His-mAPA; type: biochemical; settings: wild-type mAPA; for Ki: 0.5 mM GluNA, read-out: Ki
T1 construct: made in house; host or cells: stably transfected CHO-K1 cells
T1 sequence (P16406 1-945): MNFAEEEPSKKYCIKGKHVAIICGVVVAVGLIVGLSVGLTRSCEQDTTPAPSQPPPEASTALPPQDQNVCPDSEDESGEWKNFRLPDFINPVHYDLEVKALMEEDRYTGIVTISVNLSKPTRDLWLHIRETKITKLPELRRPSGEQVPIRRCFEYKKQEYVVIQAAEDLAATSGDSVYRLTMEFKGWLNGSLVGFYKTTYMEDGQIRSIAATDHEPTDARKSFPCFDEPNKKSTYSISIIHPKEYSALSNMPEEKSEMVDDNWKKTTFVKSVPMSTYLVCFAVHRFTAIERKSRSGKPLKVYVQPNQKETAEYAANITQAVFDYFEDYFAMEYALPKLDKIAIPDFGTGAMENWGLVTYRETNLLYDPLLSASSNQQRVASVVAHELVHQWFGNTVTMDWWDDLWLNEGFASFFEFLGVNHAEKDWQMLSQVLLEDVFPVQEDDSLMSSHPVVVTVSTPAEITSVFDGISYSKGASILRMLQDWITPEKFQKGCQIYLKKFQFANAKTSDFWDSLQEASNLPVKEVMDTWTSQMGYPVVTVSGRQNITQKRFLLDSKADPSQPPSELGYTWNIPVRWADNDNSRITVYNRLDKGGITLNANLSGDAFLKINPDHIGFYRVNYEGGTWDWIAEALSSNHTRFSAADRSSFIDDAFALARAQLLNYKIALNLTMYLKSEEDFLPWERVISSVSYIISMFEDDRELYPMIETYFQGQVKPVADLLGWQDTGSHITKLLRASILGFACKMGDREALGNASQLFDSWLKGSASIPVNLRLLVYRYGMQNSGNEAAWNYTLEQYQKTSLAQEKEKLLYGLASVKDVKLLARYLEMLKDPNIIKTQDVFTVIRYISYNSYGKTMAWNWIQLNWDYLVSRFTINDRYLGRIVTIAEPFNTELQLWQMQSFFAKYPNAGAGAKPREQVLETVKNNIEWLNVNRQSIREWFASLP
Method: (§1) Enzyme assays were carried out for wild-type and mutated His-mAPAs in 50 mM Tris-HCl buffer, pH 7.4, with or without 4 mM CaCl2, by monitoring the rate of hydrolysis of GluNA, as previously described. The sensitivity to Ca^2+ of purified wild-type and mutated His-mAPA was determinated by incubating 0.5 mM GluNA with 0 to 4 mM CaCl2 in a final volume of 100 μl of 50 mM Tris-HCl buffer, pH 7.4. All the assays were performed in black 96-well plates (solid black 96-well flat-bottomed non-treated plates with no lid; Corning Costar). All of the enzymatic studies were performed such that substrate hydrolysis rates were maintained below 10% (initial rate conditions). The kinetic curves were monitored by following the increase in fluorescence at 460 nm (lex = 330 nm), induced by the release of the β-naphthylamide fluorogenic part of the substrate by APA. Fluorescence signals were monitored by counting photons with a spectrophotometer (Fusion universal microplate analyser; Packard) equipped with a temperature control device and a plate shaker. The kinetic parameters (Km and kcat) were determined from Michaelis-Menten plots, using GraphPad Prism 4 software (GraphPad) with a final concentration of substrate (GluNA) from 0.005 to 5 mM with or without 4 mM Ca^2+. For evaluation of the substrate specificity of APA with or without 4 mM Ca^2+, the rate of hydrolysis of […] additional substrates, α-L-aspartate-β-naphthylamide (AspNA), α-L-alanine-β-naphthylamide (AlaNA) and basic α-L-lysine-β-naphthylamide (LysNA), was determined under the same experimental conditions as described for GluNA. The sensitivity of wild-type and mutated His-mAPAs to inhibition by [(3S)-3-amino-4-sulfanyl-butane-1-sulfonic acid] (EC33), glutamate-thiol (GluSH), glutamate-phosphonic-acid (GluPO3H2), methionine-thiol (MetSH) and lysine-thiol (LysSH) was determined by establishing dose-dependent inhibition curves for a final GluNA concentration of 0.5 mM in the presence or absence of 4 mM CaCl2. These compounds being linear competitive inhibitors, their Ki were calculated from the formula Ki = IC50/ (1+ [GluNA]/Km).

R878A mutated mAPA = target: T2, R878A mutated mAPA (Mus musculus, UniProt P16406, R878A); assay: Kinetic parameters of substrate hydrolysis by R878A His-mAPA; type: biochemical
T2 construct: made in house; host or cells: stably transfected CHO-K1 cells
T2 sequence (P16406 1-945 R878A): T1 sequence (P16406 1-945) with R878A
Method: as §1

| SMILES | Ki (wild-type mAPA; 4 mM Ca2+) [µM] | enhancement of inhibitory potency by 4 mM Ca2+ compared to Ki in the absence of Ca2+ (wild-type mAPA) [fold] | Ki (wild-type mAPA; absence of calcium) [µM] | Km (R878A mutated mAPA; 4 mM Ca2+) [µM] | kcat (R878A mutated mAPA; 4 mM Ca2+) [s⁻¹] | Km (R878A mutated mAPA; no Ca2+) [µM] | kcat (R878A mutated mAPA; no Ca2+) [s⁻¹] | decrease in hydrolysis velocity (kcat) compared to wild-type (factor) (R878A mutated mAPA; presence of Ca2+) | decrease in the affinity of the enzyme for the substrate compared to wild-type (factor) (R878A mutated mAPA; presence of Ca2+) |
| --- | --- | --- | --- | --- | --- | --- | --- | --- | --- |
| N[C@H](CS)CCS(=O)(=O)O [EC33, (3S)‐3‐amino‐4‐sulfanylbutane‐1‐sulfonic acid] | 0.268 ± 0.022 |  |  |  |  |  |  |  |  |
| N[C@H](CS)CCC(=O)O [GluSH, (4S)-4-amino-5-sulfanylpentanoic acid] | 0.314 ± 0.033 | 5.0 | 1.57 ± 0.27 |  |  |  |  |  |  |
| C[C@H](N)C(=O)Nc1ccc2ccccc2c1 [HAlaβNA, α-L-alanine-β-naphthylamide] |  |  |  | 544 ± 74 | 41.5 ± 1.6 | 651 ± 43.8 | 12.6 ± 0.04 |  |  |
| N[C@@H](CC(=O)O)C(=O)Nc1ccc2ccccc2c1 [HAspβNA, α-L-aspartate-β-naphthylamide] |  |  |  | 199 ± 10.1 | 17.9 ± 0.2 | 1220 ± 24.9 | 1.89 ± 0.2 |  |  |
| N[C@@H](CCC(=O)O)C(=O)Nc1ccc2ccccc2c1 [HGluβNA, α-L-glutamyl-β-naphthylamide] |  |  |  | 221 ± 4 | 22.4 ± 0.1 | 1500 ± 79.6 | 4.95 ± 0.1 | 4 | 6 |
| NCCCC[C@H](N)C(=O)Nc1ccc2ccccc2c1 [HLysβNA, α-L-lysine-β-naphthylamide] |  |  |  | 159 ± 7.8 | 11.6 ± 0.2 | 394 ± 57 | 13.8 ± 0.7 |  |  |
| NCCCC[C@H](N)CS [LysSH, (2S)-2,6-diaminohexane-1-thiol] | 13.4 ± 1.7 |  | 0.317 ± 0.03 |  |  |  |  |  |  |
| CSCC[C@H](N)CS [MetSH] | 9.18 ± 0.77 |  | 0.75 ± 0.046 |  |  |  |  |  |  |

Reference: publication PMC5587309, “Involvement of arginine 878 together with Ca^2+ in mouse aminopeptidase A substrate specificity for N-terminal acidic amino-acid residues” (PLoS ONE, 2017)
